Where two headings read alike, the source gives them in different places.
Experiments:
A128T IN HIV-1NL4-3 = assay: A128T HIV-1 infectivity in TZM-bl cells; type: cell-based; conditions: particles produced in presence of inhibitor
HIV-1 IN [1] = target: T1, HIV-1 IN (Human immunodeficiency virus type 1 group M subtype B, UniProt P12497); conditions: IC50 for inhibiting IN-LEDGF/p75 binding divided by EC50 for aberrant IN multimerization; fold
Procedure: (§1) HTRF-based IN multimerization and IN-LEDGF/p75 binding assays were carried out as described previously [33]. The HTRF signal was recorded using a Perkin Elmer Multimode EnSpire plate reader.

IN-LEDGF/p75 [2] = target: T2, IN-LEDGF/p75 (Human immunodeficiency virus type 1 group M subtype B, UniProt P12497); set-up: method as in PMID 22437836; conditions: HTRF; read-out: IC50 for IN-LEDGF/75 binding; cited from earlier work
HIV-1NL4-3 [3] = conditions: cited from earlier work
HIV-1NL4-3 [4] = assay: microbe, parasite or virus in culture; type: cell-based; conditions: for Selectivity Index, CC50/IC50: CC50 for cytotoxicity by IC50 for antiviral activity
HIV-1 IN [5] = target: T1, HIV-1 IN; set-up: DLS analysis of KF116-induced multimerization of recombinant IN; method as in PMID 22437836; conditions: HTRF; read-out: EC50 for aberrant IN multimerization; cited from earlier work
in vitro = type: cell-based
Procedure: The cytotoxcity assays were performed as described previously. The fitted dose-response curves were generated to calculate EC50 or CC50 using Origin software (OriginLab, Inc.).

[6] = system: VSV-G pseudotyped HIV-1-Luc in PSIP1 KO HEK293T cells; assay: microbe, parasite or virus in culture; type: cell-based
HIV-1 [7] = system: HIV-1; set-up: method as in PMID 24040198; conditions: ref 41; read-out: IC50 in target cells; cited from earlier work
HIV-1 expression = type: cell-based; conditions: for inhibition of HIV-1 expression: target cells
[8] = system: LEDGF/p75-dependent HIV-1 integration; assay: HIV-1 integration site distribution (ligation-mediated PCR, 454-pyrosequencing); type: cell-based
HIV-1 [9] = assay: Antiviral assay, late stage (inhibitor added to producer cells); type: cell-based; conditions: Human immunodeficiency virus 1, virions prepared in presence of inhibitor, untreated target cells; called IC50
Procedure: Results represent mean ± SD from three independent experiments.
For late stage experiments, the progeny virions were prepared in the presence of the indicated concentrations of the test inhibitor or diluent control (DMSO) and were then used to infect untreated target cells.

IN-LEDGF/p75 [10] = target: T2, IN-LEDGF/p75; assay: HTRF-based IN-LEDGF/p75 binding assay; set-up: species or system HIV-1
Procedure: HTRF-based IN multimerization and IN-LEDGF/p75 binding assays were carried out as described previously [33].

HIV-1 IN [11] = target: T1, HIV-1 IN; assay: biochemical
Procedure: as §1

[12] = system: VSV-G pseudotyped HIV-1-Luc; type: cell-based
[13] = target: the molecule itself; assay: AlphaScreen or HTRF; HTRF-based IN multimerization assay in vitro, compound (KF115 or KF116) titrated; carried out as described in ref. 33
[14] = target: the molecule itself; assay: cross-linking; concentrated, detergent-lysed virions (50 ng p24) from HEK293T cells treated with DMSO or 1 µM KF116; 50 µM BS3; SDS-PAGE and immunoblot with HIV-1 IN antibody
[15] = ref 33, 41, read-out: antiviral activity IC50
[16] = Target, 5 µM, *** P<0.001 vs DMSO
[17] = target cells, 10 µM, *** P<0.001 vs DMSO

For COC(C(=O)O)c1c(C)nc2ccc(Br)cc2c1-c1ccc(Cl)cc1 (stereo not drawn) [BI-1001, reference compound], the “A128T IN HIV-1NL4-3 replication in infected cells” value (A128T IN HIV-1NL4-3) is listed as “marked resistance”, the “Selectivity ratio, IC50 IN-LEDGF/EC50 aberrant IN multimerization” value (HIV-1 IN [1]) is listed as 0.2 and the IC50 (IN-LEDGF/p75 [2]) is listed as 1000 ± 100 nM. For the same molecule, the IC50 (HIV-1NL4-3 [3]; [15]) was about 5800 nM, the IC50 (HIV-1NL4-3 [3]; ref 33, read-out: Antiviral activity (IC50)) was 5800 ± 100 nM and the “Selectivity Index, CC50/IC50” value (HIV-1NL4-3 [4]) was over 17. The EC50 (HIV-1 IN [5]) was 4900 ± 300 nM and the CC50 (in vitro) was over 100000 nM.

For Cc1nc2ccccc2c(-c2cc(F)c3c(c2C)CCCO3)c1[C@H](OC(C)(C)C)C(=O)O [GS-B, reference compound], the “effect of complete loss of LEDGF/p75 protein in virus-producer cells on IC50 values” [6] is listed as “did not alter”, the IC50 (HIV-1 [7]) is listed as about 700 nM and the “inhibition of HIV-1 expression” value (HIV-1 expression; 5 µM) is listed as about 71%. For the same molecule, the “inhibition of HIV-1 expression” value (HIV-1 expression; 10 µM) was about 88%, the “reduction in target cell HIV-1 expression” value (HIV-1 expression; virus-producer cells treated with 0.1 µM) was about 77% and the “% in RefSeq (HIV-1 integration frequency)” value (shortened to “% in RefSeq”) ([8]; Producer, 100 nM) was 84.00%. The “% in known genes (HIV-1 integration frequency)” value (“% in known genes” for short) ([8]; Producer, 100 nM) was 85.71%, the “% in RefSeq” value [8, 16] was 73.83% and the “% in known genes” value [8, 16] was 75.74%. For the same molecule, the “% in RefSeq” value [8, 17] was 74.76%, the “% in known genes” value [8, 17] was 77.39% and the IC50 (HIV-1NL4-3 [3]; [15]) was about 26 nM. The EC50 (HIV-1NL4-3 [3]; same value given in b14 with ref 33, 41, read-out: EC50 for full replication cycle) was about 26 nM and the EC50 (HIV-1 [9]) was 39 nM.

For Cc1ccc(-c2nc(C)c(C(OC(C)(C)C)C(=O)O)c(-c3ccc(Cl)cc3)c2C)cc1C (stereo not drawn) [KF115], the “Selectivity ratio, IC50 IN-LEDGF/EC50 aberrant IN multimerization” value (HIV-1 IN [1]) was 47.4, the IC50 (IN-LEDGF/p75 [10]) was 13000 ± 1500 nM and the EC50 (HIV-1 IN [11]) was 274 ± 25 nM. The “Selectivity Index, CC50/IC50” value (HIV-1NL4-3 [4]) was over 826, the IC50 (HIV-1NL4-3 [4]; Human immunodeficiency virus 1, read-out: Antiviral activity (IC50), HIV-1NL4-3, full replication cycle) was about 121 nM and the CC50 (in vitro) was over 100000 nM.

In the case of Cc1nnc(C(=O)NC(C)(C)c2nc(C(=O)NCc3ccc(F)cc3)c(O)c(=O)n2C)o1 [RAL, Raltegravir, reference compound], the “effect on replication intermediates in target cells of virions produced in presence of inhibitor” value [12] is reported as “no inhibitory effects” and the “effect on replication intermediates when inhibitor added to target cells” value [12] is reported as “selectively inhibited the integration step and increased the levels of 2-LTRs”.

B1: HIV-1 integrase (recombinant IN) (enzyme)
chain: FLDGIDKAQEEHEKYHSNWRAMASDFNLPPVVAKEIVASCDKCQLKGEAMHGQVDCSPGIWQLDCTHLEGKVILVAVHVASGYIEAEVIPAETGQETAYFLLKLAGRWPVKTVHTDNGSNFTSTTVKAACWWAGIKQEFGIPYNPQSQGVIESMNKELKKIIGQVRDQAEHLKTAVQMAVFIHNFKRKGGIGGYSAGERIVDIIATDIQTKELQKQITKIQNFRVYYRDSRDPVWKGPAKLLWKGEGAVVIQDNSDIKVVPRRKAKIIRDYGKQMAGDDCVASRQDED
notes: also called WT IN; source: recombinant
For B1, the “EC50 of KF115 for aberrant IN multimerization (with KF115)” value [13] was 274 nM and the “EC50 of KF116 for aberrant IN multimerization (with KF116)” value [13] was 86 nM.

B2: HIV-1 integrase in virus particles (enzyme)
chain: B1 chain
notes: also called virion-associated IN
For B2, the “stoichiometry N” value [14] was 2.

— paper PMC4038613, “A New Class of Multimerization Selective Inhibitors of HIV-1 Integrase” (PLoS Pathogens, 2014)
